This experiment has as its target T1, human iNOS (Homo sapiens, UniProt P35228).
T1 construct: expressed in transfected cells; host or cells: HEK293
As to the kind of experiment: DAN assay of nitric oxide production (hiNOS). It counts as cell-based. Conditions: enzyme expressed in HEK293 cells transiently transfected with human iNOS. In short, it runs like this:
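Human iNOS transiently expressed in HEK293 cells; NO production quantified as nitrite via 2,3-diaminonaphthalene reaction forming fluorescent naphthotriazole.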
T1 sequence (P35228 whole entry): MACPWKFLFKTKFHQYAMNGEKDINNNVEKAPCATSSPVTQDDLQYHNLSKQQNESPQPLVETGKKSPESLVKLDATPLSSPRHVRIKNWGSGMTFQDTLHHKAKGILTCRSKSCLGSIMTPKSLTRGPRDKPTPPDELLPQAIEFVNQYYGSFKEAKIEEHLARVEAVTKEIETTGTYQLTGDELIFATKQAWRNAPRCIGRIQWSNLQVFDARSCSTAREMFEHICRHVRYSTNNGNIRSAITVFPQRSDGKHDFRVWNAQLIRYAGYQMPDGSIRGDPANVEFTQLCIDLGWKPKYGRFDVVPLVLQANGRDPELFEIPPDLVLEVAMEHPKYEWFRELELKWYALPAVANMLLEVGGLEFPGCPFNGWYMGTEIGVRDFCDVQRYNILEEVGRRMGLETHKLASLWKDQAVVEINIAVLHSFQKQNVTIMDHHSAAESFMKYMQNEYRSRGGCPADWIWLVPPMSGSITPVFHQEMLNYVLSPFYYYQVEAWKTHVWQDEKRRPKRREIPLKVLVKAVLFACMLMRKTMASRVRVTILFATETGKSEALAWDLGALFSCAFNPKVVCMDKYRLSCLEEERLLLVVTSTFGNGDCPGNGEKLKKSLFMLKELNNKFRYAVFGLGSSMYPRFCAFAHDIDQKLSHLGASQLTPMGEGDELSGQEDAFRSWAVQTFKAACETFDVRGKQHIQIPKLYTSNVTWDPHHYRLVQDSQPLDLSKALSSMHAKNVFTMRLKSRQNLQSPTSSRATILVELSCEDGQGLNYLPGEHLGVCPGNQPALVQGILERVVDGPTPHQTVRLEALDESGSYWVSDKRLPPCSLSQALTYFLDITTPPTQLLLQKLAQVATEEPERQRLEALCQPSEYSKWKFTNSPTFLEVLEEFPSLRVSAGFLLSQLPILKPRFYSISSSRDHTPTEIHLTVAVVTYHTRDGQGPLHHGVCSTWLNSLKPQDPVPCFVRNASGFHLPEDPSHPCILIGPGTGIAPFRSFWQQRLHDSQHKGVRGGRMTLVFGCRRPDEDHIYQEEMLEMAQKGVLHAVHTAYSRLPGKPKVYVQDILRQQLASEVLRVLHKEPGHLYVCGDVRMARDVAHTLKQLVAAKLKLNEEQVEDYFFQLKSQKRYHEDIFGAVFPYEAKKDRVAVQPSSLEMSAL
`CC(C)c1nc2ccn(Cc3cc(=O)[nH]c4c(F)c(F)ccc34)cc-2n1` [Example 230, 7,8-Difluoro-4-((2-isopropyl-5H-imidazo[4,5-c]pyridin-5-yl)methyl)quinolin-2(1H)-one] gave an EC50 above 5 µM.
In the case of `Cc1noc(C)c1-c1nc2ccccc2n1Cc1cc(=O)[nH]c2c(F)c(F)ccc12` [Example 232, 4-((2-(3,5-Dimethylisoxazol-4-yl)-1H-benzo[d]imidazol-1-yl)methyl)-7,8-difluoroquinolin-2(1H)-one] it was at most 5 µM; in that of `Cn1nccc1-c1nc2ccccc2n1Cc1cc(=O)[nH]c2c(F)c(F)ccc12` [Example 233, 7,8-Difluoro-4-((2-(1-methyl-1H-pyrazol-5-yl)-1H-benzo[d]imidazol-1-yl)methyl)quinolin-2(1H)-one], at most 5 µM; in that of `CC(C)(C)Cc1nc2ccccc2n1Cc1cc(=O)[nH]c2c(F)c(F)ccc12` [Example 237, 7,8-Difluoro-4-((2-neopentyl-1H-benzo[d]imidazol-1-yl)methyl)quinolin-2(1H)-one], above 5 µM.
As for `CC(C)c1nn(Cc2cc(=O)[nH]c3c(F)c(F)ccc23)c2ccccc12` [Example 239, 7,8-Difluoro-4-((3-isopropyl-1H-indazol-1-yl)methyl)quinolin-2(1H)-one], the EC50 is above 5 µM.
As for `Cc1ccccc1-c1nc2ccccc2n1Cc1cc(=O)[nH]c2c(F)c(F)ccc12` [Example 240, 7,8-Difluoro-4-((2-o-tolyl-1H-benzo[d]imidazol-1-yl)methyl)quinolin-2(1H)-one], the figure is above 5 µM; as for `O=c1cc(Cn2c(-c3ccccc3Cl)nc3ccccc32)c2ccc(F)c(F)c2[nH]1` [Example 241, 4-((2-(2-Chlorophenyl)-1H-benzo[d]imidazol-1-yl)methyl)-7,8-difluoroquinolin-2(1H)-one], at most 5 µM; as for `CN(C)c1ccccc1-c1nc2ccccc2n1Cc1cc(=O)[nH]c2c(F)c(F)ccc12` [Example 242, 4-((2-(2-(Dimethylamino)phenyl)-1H-benzo[d]imidazol-1-yl)methyl)-7,8-difluoroquinolin-2(1H)-one], above 5 µM.
As for `Cc1ccc(C)c(-c2nc3ccccc3n2Cc2cc(=O)[nH]c3c(F)c(F)ccc23)c1` [Example 243, 4-((2-(2,5-Dimethylphenyl)-1H-benzo[d]imidazol-1-yl)methyl)-7,8-difluoroquinolin-2(1H)-one], the figure is above 5 µM; as for `O=c1cc(Cn2c(-c3ccncc3F)nc3ccccc32)c2ccc(F)c(F)c2[nH]1` [Example 244, 7,8-Difluoro-4-((2-(3-fluoropyridin-4-yl)-1H-benzo[d]imidazol-1-yl)methyl)quinolin-2(1H)-one], at most 5 µM; as for `O=c1cc(Cn2c(-c3ccccc3C(F)(F)F)nc3ccccc32)c2ccc(F)c(F)c2[nH]1` [Example 245, 7,8-Difluoro-4-((2-(2-(trifluoromethyl)phenyl)-1H-benzo[d]imidazol-1-yl)methyl)quinolin-2(1H)-one], at most 5 µM.
As for `Cc1cccc(C)c1-c1nc2ccccc2n1Cc1cc(=O)[nH]c2c(F)c(F)ccc12` [Example 246, 4-((2-(2,6-Dimethylphenyl)-1H-benzo[d]imidazol-1-yl)methyl)-7,8-difluoroquinolin-2(1H)-one], the figure is above 5 µM; as for `O=c1cc(Cn2c(-c3c(F)cccc3F)nc3ccccc32)c2ccc(F)c(F)c2[nH]1` [Example 247, 4-((2-(2,6-Difluorophenyl)-1H-benzo[d]imidazol-1-yl)methyl)-7,8-difluoroquinolin-2(1H)-one], above 5 µM; as for `O=c1cc(Cn2c(-c3ccncc3Cl)nc3ccccc32)c2ccc(F)c(F)c2[nH]1` [Example 248, 4-((2-(3-Chloropyridin-4-yl)-1H-benzo[d]imidazol-1-yl)methyl)-7,8-difluoroquinolin-2(1H)-one], at most 5 µM.
In the case of `O=c1cc(Cn2c(Cn3ccnc3)nc3ccccc32)c2ccc(F)c(F)c2[nH]1` [Example 251, 4-((2-((1H-Imidazol-1-yl)methyl)-1H-benzo[d]imidazol-1-yl)methyl)-7,8-difluoroquinolin-2(1H)-one], the EC50 is above 5 µM.
As for `O=C1CCN(c2ccccc2)N1Cc1cc(=O)[nH]c2c(F)c(F)ccc12` [Example 252, 7,8-Difluoro-4-((5-oxo-2-phenylpyrazolidin-1-yl)methyl)quinolin-2(1H)-one], the figure is at most 5 µM; as for `Cc1ncsc1C(=O)N(c1cccc(Cl)c1)C(F)c1cc(=O)[nH]c2c(F)cccc12` (stereo not shown) [Example 253, N-(3-Chlorophenyl)-N-(fluoro(8-fluoro-2-oxo-1,2-dihydroquinolin-4-yl)methyl)-4-methylthiazole-5-carboxamide], at most 5 µM; as for `CC(C)c1cn(Cc2cc(=O)[nH]c3c(F)c(F)ccc23)c(-c2ccccc2)n1` [Example 254, 7,8-Difluoro-4-((4-isopropyl-2-phenyl-1H-imidazol-1-yl)methyl)quinolin-2(1H)-one], at most 5 µM.
In the case of `CC(C)c1ncc(-c2ccccc2)n1Cc1cc(=O)[nH]c2c(F)c(F)ccc12` [Example 255, 7,8-Difluoro-4-((2-isopropyl-5-phenyl-1H-imidazol-1-yl)methyl)quinolin-2(1H)-one] it was above 5 µM; in that of `Cc1nc(C)n(Cc2cc(=O)[nH]c3c(F)c(F)ccc23)c1C` [Example 256, 7,8-Difluoro-4((2,4,5-trimethyl-1H-imidazol-1-yl)methyl)quinolin-2(1H)-one], above 5 µM; in that of `Cc1nc(-c2cccc(Cl)c2)n(Cc2cc(=O)[nH]c3c(F)c(F)ccc23)c1C` [Example 257, 4-((2-(3-Chlorophenyl)-4,5-dimethyl-1H-imidazol-1-yl)methyl)-7,8-difluoroquinolin-2(1H)-one], at most 5 µM.
As to `Cc1c(-c2ccccc2)nc(C(C)C)n1Cc1cc(=O)[nH]c2c(F)c(F)ccc12` [Example 258, 7,8-Difluoro-4-((2-isopropyl-5-methyl-4-phenyl-1H-imidazol-1-yul)methyl)quinolin-2(1H)-one], the EC50 was above 5 µM.
As for `O=c1cc(Cn2cnc(-c3ccccc3)c2)c2ccc(F)c(F)c2[nH]1` [Example 260, 7,8-Difluoro-4-((4-phenyl-1H-imidazol-1-yl)methyl)quinolin-2(1H)-one], the figure is above 5 µM; as for `O=c1cc(CN(c2cccc(Cl)c2)S(=O)(=O)c2cccnc2)c2ccc(F)c(F)c2[nH]1` [Example 261, N-(3-chlorophenyl)-N-((7,8-difluoro-2-oxo-1,2-dihydroquinolin-4-yl)methyl)pyridine-3-sulfonamide], at most 5 µM; as for `COc1cccc(N(Cc2cc(=O)[nH]c3c(F)cccc23)C(=O)c2scnc2C)c1` [Example 262, N-((8-Fluoro-2-oxo-1,2-dihydroquinolin-4-yl)methyl)-N-(3-methoxyphenyl)-4-methylthiazole-5-carboxamide], at most 5 µM.
On to `Cc1ncsc1C(=O)N(Cc1cc(=O)[nH]c2c(F)c(F)ccc12)c1cccnc1` [Example 263, N-((7,8-Difluoro-2-oxo-1,2-dihydroquinolin-4-yl)methyl)-4-methyl-N-(pyridin-3-yl)thiazole-5-carboxamide], for which the EC50 is at most 5 µM.
As for `Cc1ncsc1C(=O)N(Cc1cc(=O)[nH]c2c(F)c(F)ccc12)c1ccccn1` [Example 264, N-((7,8-Difluoro-2-oxo-1,2-dihydroquinolin-4-yl)methyl)-4-methyl-N-(pyridin-2-yl)thiazole-5-carboxamide], the figure is above 5 µM; as for `Cc1nc(S(=O)(=O)N(Cc2cc(=O)[nH]c3c(F)c(F)ccc23)c2cccc(Cl)c2)cn1C` [Example 265, N-(3-Chlorophenyl)-N-((7,8-difluoro-2-oxo-1,2-dihydroquinolin-4-yl)methyl)-1,2-dimethyl-1H-imidazole-4-sulfonamide], at most 5 µM.

One may read the EC50 as the concentration needed to bring the measured effect to its halfway point. A higher EC50 goes with weaker potency.

Values taken from patent publication US20080139558A1, “QUINOLONES USEFUL AS INDUCIBLE NITRIC OXIDE SYNTHASE INHIBITORS” (KALYPSYS, INC., priority 2006, published 2008).
